According to patent publication US12679878B2, “CRF2 receptor agonists and their use in therapy” (SANOFI, priority 2020, dated 2026):
In brackets after ≈: the same amount, converted by molar mass. Like-named read-outs stand apart in the source and are kept apart here. Starred links: 1 amine or outer side, 2 acyl side, 3 side chain; linkers in the order of their positions; H or OH if unused. Non-standard residues stand in square brackets, D forms with d. Residues, ends and D or L forms follow the SMILES beside them. Groups on a side chain read outwards from the residue. *: point of attachment. C20 diacid = O=C(O)CCCCCCCCCCCCCCCCCCC(=O)*; C18 diacid = O=C(O)CCCCCCCCCCCCCCCCC(=O)*; γGlu = O=C(O)[C@H](CCC(=O)[*:2])N[*:1]; AEEA = NCCOCCOCC(=O)O; Aib = CC(C)(N)C(=O)O

What was measured:
rat CRF2R α receptor = experiment: cAMP agonism at rat CRF2R α receptor in A7R5 rat aortic smooth muscle cells (Example 8); assay type: cell-based; conditions: cAMP HTRF, A7R5 rat aortic smooth muscle cell line, 0% HSA
How it was run: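 Potency (EC50) is the concentration reaching half-maximal activation, with responses scaled so that 1000 nM urocortin 2 equals 100%. Intracellular cAMP was quantified by homogeneous time-resolved fluorescence at 665/620 nm, 1 h after lysis-buffer reagents. Compound stimulation lasted 30 min at room temperature on 2000 IBMX-treated (2 mM) cells per well in HEPES-buffered HBSS.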

[1] = Solubility in buffer systems by UPLC-UV (Example 13); assay type: physicochemical
How it was run: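 Quantitation used UV peak area from UPLC of the 1:10-diluted supernatant, set against a reference-compound standard curve with extinction coefficients adjusted for amino acid sequence.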

[2] = Chemical stability, purity loss by UPLC-UV after 28 days at 40° C. vs 5° C., pH 4.5 acetate buffer (Example 12); assay type: physicochemical; conditions: 28 days 40° C. vs 5° C.; pH 4.5, 20 mM acetate buffer; 300 μM
How it was run: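 300 μM compound (purity-corrected) in 20 mM acetate buffer, pH 4.5, stored 28 days at 5 and 40° C. Purity by UPLC-UV as compound peak area over total peak area. Value is the purity difference between 5° C. and 40° C. samples, relative to the 5° C. purity, in percent.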

[3] = Physical stability, dynamic light scattering assay (Example 15); assay type: physicochemical; conditions: for Apparent Rh [nm] 4 weeks / Scattering Intensity (I) [%] 4 weeks: 4 weeks at 40° C.
How it was run: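 DLS at 837 nm, 150° angle, +25° C; Rh, scattering intensity and mass contribution measured at 0 weeks and after 4 weeks at 40° C. Rh and D compared at 1, 5 and 10 mg/ml as kD surrogate; separate measurements at 300 μM, purity-corrected.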

[4] = pH 4.5, Solubility in Buffer B [mg/ml]
[5] = pH 7.4, Solubility in Buffer C [mg/ml]
[6] = Buffer C (20 mM phosphate, pH 6.2)
[7] = pH 4.5, Solubility in Buffer A [mg/ml]
[8] = Buffer A (100 mM acetate, pH 4.5)
[9] = Buffer D (20 mM phosphate, pH 7.4)

EC50 (rat CRF2R α receptor)	solubility at 1 h [1, 4]	solubility at 1 h [1, 5]	Relative purity loss [%] [2]	solubility at 1 h [1, 7]	Apparent Rh [nm] 0 weeks [3, 8]	Scattering Intensity (I) [%] 0 weeks [3, 8]	Apparent Rh [nm] 4 weeks [3, 8]	Scattering Intensity (I) [%] 4 weeks [3, 8]	Apparent Rh [nm] 0 weeks [3, 9]	Scattering Intensity (I) [%] 0 weeks [3, 9]	Apparent Rh [nm] 4 weeks [3, 9]	Scattering Intensity (I) [%] 4 weeks [3, 9]	SMILES	solubility at 1 h ([1]; Buffer B: 100 mM acetate buffer, pH 4.5, 2.7 mg/ml m-cresol, target 10 mg/ml, read-out: Solubility in Buffer B)	solubility at 1 h ([1]; Buffer C: 100 mM phosphate buffer, pH 7.4, target 10 mg/ml, read-out: Solubility in Buffer C)	Apparent Rh [nm] 0 weeks [3, 6]	Scattering Intensity (I) [%] 0 weeks [3, 6]	Apparent Rh [nm] 4 weeks [3, 6]	Scattering Intensity (I) [%] 4 weeks [3, 6]
0.81 nM	> 8700 µg/mL	> 9800 µg/mL	4.45%	–	–	–	–	–	–	–	–	–	CC[C@H](C)[C@H](N)C(=O)N[C@H](C(=O)N[C@@H](CC(C)C)C(=O)N[C@@H](CO)C(=O)N[C@@H](CC(C)C)C(=O)N[C@@H](CC(=O)O)C(=O)N[C@H](C(=O)N1CCC[C@H]1C(=O)N[C@H](C(=O)N[C@@H](CCCCN)C(=O)N[C@@H](CC(C)C)C(=O)N[C@@H](CCCCNC(=O)COCCOCCNC(=O)COCCOCCNC(=O)CC[C@H](NC(=O)CCCCCCCCCCCCCCCCC(=O)O)C(=O)O)C(=O)N[C@@H](CCCCN)C(=O)N[C@H](C(=O)N[C@@H](CC(C)C)C(=O)N[C@@H](CC(C)C)C(=O)N[C@@H](CCC(=O)O)C(=O)N[C@@H](CCC(N)=O)C(=O)N[C@@H](CCC(=O)O)C(=O)N[C@@H](CCCCN)C(=O)N[C@@H](CCC(N)=O)C(=O)N[C@@H](CCCCN)C(=O)N[C@@H](CCCCN)C(=O)N[C@@H](CCC(N)=O)C(=O)N[C@@H](CCCNC(=N)N)C(=O)N[C@@H](CCC(=O)O)C(=O)N[C@@H](CCC(N)=O)C(=O)N[C@@H](C)C(=O)N[C@@H](CCC(=O)O)C(=O)N[C@H](C(=O)N[C@@H](CC(N)=O)C(=O)N[C@@H](CCCCN)C(=O)N[C@@H](CCC(N)=O)C(=O)N[C@H](C(=O)N[C@@H](CC(C)C)C(=O)N[C@@H](C)C(=O)N[C@@H](CCC(N)=O)C(=O)N[C@H](C(N)=O)C(C)C)[C@@H](C)CC)[C@@H](C)O)[C@@H](C)CC)[C@@H](C)CC)C(C)C)C(C)C [compound 35] (H-IVLSLDVPIKLK([AEEA-AEEA-γGlu-C18 diacid])KILLEQEKQKKQREQAETNKQILAQV-NH2; N-terminus assumed)	–	–	–	–	–	–
0.62 nM	–	–	–	> 10000 µg/mL	3.32 ± 0.18 nm	100 ± 1%	3.42 ± 0.04 nm	99 ± 1%	–	–	–	–	CC[C@H](C)[C@H](N)C(=O)N[C@H](C(=O)N[C@@H](CC(C)C)C(=O)N[C@@H](CO)C(=O)N[C@@H](CC(C)C)C(=O)N[C@@H](CC(=O)O)C(=O)N[C@H](C(=O)N1CCC[C@H]1C(=O)N[C@H](C(=O)N[C@@H](CCCCN)C(=O)N[C@@H](CC(C)C)C(=O)N[C@@H](CCCCNC(=O)COCCOCCNC(=O)COCCOCCNC(=O)CC[C@H](NC(=O)CCCCCCCCCCCCCCCCC(=O)O)C(=O)O)C(=O)N[C@@H](CCCCN)C(=O)N[C@H](C(=O)N[C@@H](CC(C)C)C(=O)N[C@@H](CC(C)C)C(=O)N[C@@H](CCCCN)C(=O)N[C@@H](CCC(N)=O)C(=O)N[C@@H](CCC(=O)O)C(=O)N[C@@H](CCCNC(=N)N)C(=O)N[C@@H](CCC(N)=O)C(=O)N[C@@H](CCCCN)C(=O)N[C@@H](CCCCN)C(=O)NC(C)(C)C(=O)N[C@@H](CCCNC(=N)N)C(=O)N[C@@H](CCC(=O)O)C(=O)N[C@@H](CCC(N)=O)C(=O)N[C@@H](C)C(=O)N[C@@H](CCC(=O)O)C(=O)N[C@@H](CCCCN)C(=O)N[C@@H](CC(N)=O)C(=O)N[C@@H](CCCCN)C(=O)N[C@@H](CCC(N)=O)C(=O)N[C@H](C(=O)N[C@@H](CC(C)C)C(=O)N[C@@H](C)C(=O)N[C@@H](CCC(N)=O)C(=O)N[C@H](C(N)=O)C(C)C)[C@@H](C)CC)[C@@H](C)CC)[C@@H](C)CC)C(C)C)C(C)C [compound 99] (H-IVLSLDVPIKLK([AEEA-AEEA-γGlu-C18 diacid])KILLKQERQKK[Aib]REQAEKNKQILAQV-NH2)	–	–	–	–	–	–
0.13 nM	> 9200 µg/mL	7500 µg/mL (≈ 1450 µM)	3.55%	> 8400 µg/mL	2.83 ± 0.12 nm	99 ± 1%	3.01 ± 0.03 nm	99 ± 1%	2.54 ± 0.16 nm	100 ± 0%	2.63 ± 0.15 nm	100 ± 0%	CC[C@H](C)[C@H](N)C(=O)N[C@H](C(=O)N[C@@H](CC(C)C)C(=O)N[C@@H](CO)C(=O)N[C@@H](CC(C)C)C(=O)N[C@@H](CC(=O)O)C(=O)N[C@@H](C(=O)N1CCC[C@H]1C(=O)N[C@H](C(=O)N[C@@H](CCCCN)C(=O)N[C@@H](CC(C)C)C(=O)N[C@@H](CCCCNC(=O)COCCOCCNC(=O)COCCOCCNC(=O)CC[C@H](NC(=O)CCCCCCCCCCCCCCCCC(=O)O)C(=O)O)C(=O)N[C@@H](CCC(N)=O)C(=O)N[C@H](C(=O)N[C@@H](CC(C)C)C(=O)N[C@@H](CC(C)C)C(=O)N[C@@H](CCCCN)C(=O)N[C@@H](CCC(N)=O)C(=O)N[C@@H](CCC(=O)O)C(=O)N[C@@H](CCCNC(=N)N)C(=O)N[C@@H](CCC(N)=O)C(=O)N[C@@H](CCCCN)C(=O)NC(C)(C)C(=O)N[C@@H](CCC(N)=O)C(=O)N[C@@H](CCCNC(=N)N)C(=O)N[C@@H](CCC(N)=O)C(=O)N[C@@H](CCC(N)=O)C(=O)N[C@@H](C)C(=O)N[C@@H](CCC(=O)O)C(=O)N[C@@H](CCCCN)C(=O)N[C@@H](CC(N)=O)C(=O)N[C@@H](CCCCN)C(=O)N[C@@H](CCC(N)=O)C(=O)N[C@H](C(=O)N[C@@H](CC(C)C)C(=O)N[C@@H](C)C(=O)N[C@@H](CCC(N)=O)C(=O)N[C@H](C(N)=O)C(C)C)[C@@H](C)CC)[C@@H](C)CC)[C@@H](C)CC)C(C)C)C(C)C [compound 135] (H-IVLSLD[dV]PIKLK([AEEA-AEEA-γGlu-C18 diacid])QILLKQERQK[Aib]QRQQAEKNKQILAQV-NH2; N-terminus assumed)	–	–	–	–	–	–

SMILES	EC50 (rat CRF2R α receptor)	solubility at 1 h [1, 4]	solubility at 1 h [1, 5]	Relative purity loss [%] [2]	solubility at 1 h [1, 7]	Apparent Rh [nm] 0 weeks [3, 8]	Scattering Intensity (I) [%] 0 weeks [3, 8]	Apparent Rh [nm] 4 weeks [3, 8]	Scattering Intensity (I) [%] 4 weeks [3, 8]	Apparent Rh [nm] 0 weeks [3, 9]	Scattering Intensity (I) [%] 0 weeks [3, 9]	Apparent Rh [nm] 4 weeks [3, 9]	Scattering Intensity (I) [%] 4 weeks [3, 9]	solubility at 1 h ([1]; Buffer B: 100 mM acetate buffer, pH 4.5, 2.7 mg/ml m-cresol, target 10 mg/ml, read-out: Solubility in Buffer B)	solubility at 1 h ([1]; Buffer C: 100 mM phosphate buffer, pH 7.4, target 10 mg/ml, read-out: Solubility in Buffer C)	Apparent Rh [nm] 0 weeks [3, 6]	Scattering Intensity (I) [%] 0 weeks [3, 6]	Apparent Rh [nm] 4 weeks [3, 6]	Scattering Intensity (I) [%] 4 weeks [3, 6]
CC[C@H](C)[C@H](NC(=O)[C@H](CCC(N)=O)NC(=O)[C@H](CCC(=O)O)NC(=O)[C@H](CC(C)C)NC(=O)[C@H](CC(C)C)NC(=O)[C@H](CCC(N)=O)NC(=O)[C@H](CCCCN)NC(=O)[C@H](CC(N)=O)NC(=O)[C@H](CCCCN)NC(=O)[C@H](CCC(=O)O)NC(=O)[C@H](C)NC(=O)[C@H](CCC(N)=O)NC(=O)[C@H](CCC(N)=O)NC(=O)[C@H](CCCNC(=N)N)NC(=O)[C@H](CCC(=O)O)NC(=O)[C@H](CCCCN)NC(=O)[C@H](CCCCN)NC(=O)[C@H](CCC(N)=O)NC(=O)[C@H](CCCCN)NC(=O)[C@H](CCC(N)=O)NC(=O)[C@H](CCC(N)=O)NC(=O)[C@H](CCCCN)NC(=O)[C@H](CC(C)C)NC(=O)[C@H](CC(C)C)NC(=O)[C@@H](NC(=O)[C@H](CCC(N)=O)NC(=O)[C@H](CCCCNC(=O)COCCOCCNC(=O)COCCOCCNC(=O)CC[C@H](NC(=O)CCCCCCCCCCCCCCCCCCC(=O)O)C(=O)O)NC(=O)[C@@H](NC(=O)[C@H](CCCCN)NC(=O)[C@@H](NC(=O)[C@@H]1CCCN1C(=O)[C@@H](NC(=O)[C@H](CC(=O)O)NC(=O)[C@H](CC(C)C)NC(=O)[C@H](CO)NC(=O)[C@H](CC(C)C)NC(=O)[C@@H](NC(=O)[C@@H](N)Cc1ccccc1)[C@@H](C)O)C(C)C)[C@@H](C)O)[C@@H](C)CC)[C@@H](C)CC)C(N)=O [compound 59] (H-FTLSLDVPTKIK([AEEA-AEEA-γGlu-C20 diacid])QILLKQQKQKKERQQAEKNKQLLEQI-NH2)	0.34 nM	–	–	2.85%	–	–	–	–	–	–	–	–	–	> 9400 µg/mL	> 9100 µg/mL	3.66 ± 0.05 nm	100 ± 0%	3.75 ± 0.08 nm	100 ± 0%
